Results reported in patent US9382197B2, “Substituted hydroxamic acids and uses thereof” (Millennium Pharmaceuticals, Inc., priority 2010, dated 2016).
pIC50: −log10 of the molar value. Values belong to the molecule of their own block, whether it stands above or below them.

Molecular target: T1, purified human HDAC6 (Homo sapiens, UniProt Q9UBN7)
T1 construct: purchased BPS Bioscience 5006
T1 sequence (Q9UBN7 1-1215): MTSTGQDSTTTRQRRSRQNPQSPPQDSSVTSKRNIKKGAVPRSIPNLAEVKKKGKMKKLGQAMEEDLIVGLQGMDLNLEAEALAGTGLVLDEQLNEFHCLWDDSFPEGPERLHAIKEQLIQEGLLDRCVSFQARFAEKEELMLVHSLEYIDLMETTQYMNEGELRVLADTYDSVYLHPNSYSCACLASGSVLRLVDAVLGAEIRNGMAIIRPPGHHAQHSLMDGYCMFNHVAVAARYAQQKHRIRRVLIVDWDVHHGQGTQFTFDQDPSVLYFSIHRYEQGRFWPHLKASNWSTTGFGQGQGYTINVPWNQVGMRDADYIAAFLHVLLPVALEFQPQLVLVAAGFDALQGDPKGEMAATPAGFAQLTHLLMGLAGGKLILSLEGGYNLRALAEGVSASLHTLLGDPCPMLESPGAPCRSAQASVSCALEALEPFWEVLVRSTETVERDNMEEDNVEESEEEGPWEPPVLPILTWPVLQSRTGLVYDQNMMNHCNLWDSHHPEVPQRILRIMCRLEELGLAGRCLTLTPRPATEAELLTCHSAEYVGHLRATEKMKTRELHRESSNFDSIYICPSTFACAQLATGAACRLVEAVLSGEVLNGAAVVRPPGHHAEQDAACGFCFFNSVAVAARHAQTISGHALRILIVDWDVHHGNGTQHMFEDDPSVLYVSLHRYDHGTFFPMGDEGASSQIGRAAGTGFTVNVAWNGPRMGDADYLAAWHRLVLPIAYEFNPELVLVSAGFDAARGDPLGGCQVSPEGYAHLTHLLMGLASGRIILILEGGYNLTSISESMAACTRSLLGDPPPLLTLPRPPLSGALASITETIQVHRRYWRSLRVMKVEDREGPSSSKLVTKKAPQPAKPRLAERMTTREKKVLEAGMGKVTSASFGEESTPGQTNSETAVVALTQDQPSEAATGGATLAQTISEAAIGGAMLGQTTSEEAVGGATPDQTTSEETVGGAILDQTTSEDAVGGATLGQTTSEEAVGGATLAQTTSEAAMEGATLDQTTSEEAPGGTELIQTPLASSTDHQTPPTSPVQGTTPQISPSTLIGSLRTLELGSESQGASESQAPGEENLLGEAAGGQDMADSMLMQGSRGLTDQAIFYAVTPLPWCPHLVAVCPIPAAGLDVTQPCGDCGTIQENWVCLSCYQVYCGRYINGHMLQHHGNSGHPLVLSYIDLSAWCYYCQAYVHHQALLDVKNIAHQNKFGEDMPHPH
Assay: HDAC6 Enzyme Assay
Type: biochemical
Conditions: for IC50: bin: greater than 500 nM and less than 1 μM (lower bound in nM, upper bound in μM)
In short: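 Deacetylated product quantified after trypsin digestion as released AMC (340/460 nm), following a 1 h, 30 °C reaction of human HDAC6 with Ac-RGK(Ac)-AMC peptide, quenched by trichostatin A. IC50 derived from DMSO-normalized curves.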

[1] = purified human HDAC6, substrate Ac-Arg-Gly-Lys(Ac)-AMC, 1 hour at 30° C., reported as bins

Structure (SMILES): Cc1cc(C(=O)NC(C)c2cccc(C(=O)NO)c2)c(C)[nH]1 (stereo not shown) [Compound I-181, N-(1-{3-[(hydroxyamino)carbonyl]phenyl}ethyl)-2,5-dimethyl-1H-pyrrole-3-carboxamide]
IC50: 500 to 1000 nM

Structure (SMILES): Cc1c(C(=O)NC(c2ccc(C(=O)NO)cc2)C(C)(C)C)cnn1-c1ccccc1 (stereo not shown) [Compound I-182, N-(1-{4-[(hydroxyamino)carbonyl]phenyl}-2,2-dimethylpropyl)-5-methyl-1-phenyl-1H-pyrazole-4-carboxamide]
pIC50 [1]: 6.30 to 7.00

Structure (SMILES): CC(NC(=O)C1(c2ccc(Cl)cc2)CC1)c1cccc(C(=O)NO)c1 (stereo not shown) [Compound I-183, 3-[1-({[1-(4-chlorophenyl)cyclopropyl]carbonyl}amino)ethyl]-N-hydroxybenzamide]
IC50: 500 to 1000 nM

Structure (SMILES): C[C@@H](NC(=O)c1cc2ccccc2s1)c1ccc(C(=O)NO)cc1 [Compound I-184, N-((1R)-1-{4-[(hydroxyamino)carbonyl]phenyl}ethyl)-1-benzothiophene-2-carboxamide]
pIC50 [1]: > 7.00

Structure (SMILES): CC(NC(=O)c1ccc(-n2cccn2)cc1)c1ccc(C(=O)NO)cc1 (stereo not shown) [Compound I-185, N-(1-{4-[(hydroxyamino)carbonyl]phenyl}ethyl)-4-(1H-pyrazol-1-yl)benzamide]
pIC50 [1]: > 7.00

Structure (SMILES): CC(C)c1cc(C(=O)NC(C)c2ccc(C(=O)NO)cc2)n(C)n1 (stereo not shown) [Compound I-186, N-(1-{4-[(hydroxyamino)carbonyl]phenyl}ethyl)-3-isopropyl-1-methyl-1H-pyrazole-5-carboxamide]
pIC50 [1]: > 7.00

Structure (SMILES): Cc1c(C(=O)N[C@@H](c2ccc(C(=O)NO)cc2)C(C)C)oc2ccccc12 [Compound I-187, N-((1R)-1-{4-[(hydroxyamino)carbonyl]phenyl}-2-methylpropyl)-3-methyl-1-benzofuran-2-carboxamide]
pIC50 [1]: > 7.00

Structure (SMILES): CC(C)[C@@H](NS(=O)(=O)c1ccc(C(F)(F)F)cc1)c1ccc(C(=O)NO)cc1 [Compound I-189, N-hydroxy-4-[(1R)-2-methyl-1-({[4-(trifluoromethyl)phenyl]sulfonyl}amino)propyl]benzamide]
pIC50 (bin: greater than 1 μM): < 6.00

Structure (SMILES): CC(C)C(NC(=O)c1cnc2ccccc2n1)c1ccc(C(=O)NO)cc1 (stereo not shown) [Compound I-190, N-(1-{4-[(hydroxyamino)carbonyl]phenyl}-2-methylpropyl)quinoxaline-2-carboxamide]
pIC50 [1]: > 7.00

Structure (SMILES): CC(C)C(NC(=O)c1nc2ccccc2s1)c1ccc(C(=O)NO)cc1 (stereo not shown) [Compound I-191, N-(1-{4-[(hydroxyamino)carbonyl]phenyl}-2-methylpropyl)-1,3-benzothiazole-2-carboxamide]
pIC50 [1]: > 7.00

Structure (SMILES): CC(C)C(NC(=O)c1ccc(C(C)(C)C)cc1)c1ccc(C(=O)NO)cc1 (stereo not shown) [Compound I-192, 4-tert-butyl-N-(1-{4-[(hydroxyamino)carbonyl]phenyl}-2-methylpropyl)benzamide]
pIC50 [1]: 6.30 to 7.00

Structure (SMILES): COc1ccc(C(=O)N[C@H](C)c2cccc(C(=O)NO)c2)cc1 [Compound I-193, N-hydroxy-3-{(1R)-1-[(4-methoxybenzoyl)amino]ethyl}benzamide]
pIC50 [1]: 6.30 to 7.00

Structure (SMILES): CC(C)C(NC(=O)c1ccc2occc2c1)c1ccc(C(=O)NO)cc1 (stereo not shown) [Compound I-194, N-(1-{4-[(hydroxyamino)carbonyl]phenyl}-2-methylpropyl)-1-benzofuran-5-carboxamide]
pIC50 [1]: > 7.00

Structure (SMILES): CC(C)C(NC(=O)Cc1cccc(C(F)(F)F)c1)c1ccc(C(=O)NO)cc1 (stereo not shown) [Compound I-195, N-hydroxy-4-[2-methyl-1-({[3-(trifluoromethyl)phenyl]acetyl}amino)propyl]benzamide]
IC50: 500 to 1000 nM

Structure (SMILES): CC(NC(=O)NC(C)c1ccc(C(=O)NO)cc1)c1ccccc1 (stereo not shown) [Compound I-196, N-hydroxy-4-[1-({[(1-phenylethyl)amino]carbonyl}amino)ethyl]benzamide]
pIC50 [1]: 6.30 to 7.00

Structure (SMILES): CC(NC(=O)c1cccc(S(C)(=O)=O)c1)c1cccc(C(=O)NO)c1 (stereo not shown) [Compound I-199, N-(1-{3-[(hydroxyamino)carbonyl]phenyl}ethyl)-3-(methylsulfonyl)benzamide]
IC50: 500 to 1000 nM

Structure (SMILES): Cc1noc(C)c1C(=O)NC(c1ccc(C(=O)NO)cc1)C(C)(C)C (stereo not shown) [Compound I-200, N-(1-{4-[(hydroxyamino)carbonyl]phenyl}-2,2-dimethylpropyl)-3,5-dimethylisoxazole-4-carboxamide]
pIC50 (bin: greater than 1 μM): < 6.00

Structure (SMILES): C[C@@H](NC(=O)c1cc2ccccc2o1)c1cccc(C(=O)NO)c1 [Compound I-201, N-((1R)-1-{3-[(hydroxyamino)carbonyl]phenyl}ethyl)-1-benzofuran-2-carboxamide]
pIC50 [1]: 6.30 to 7.00

Structure (SMILES): COc1ccc(C(=O)NC(C)c2cccc(C(=O)NO)c2)cc1 (stereo not shown) [Compound I-202, N-hydroxy-3-{1-[(4-methoxybenzoyl)amino]ethyl}benzamide]
pIC50 [1]: 6.30 to 7.00

Structure (SMILES): CC(C)C(NC(=O)c1cnccn1)c1ccc(C(=O)NO)cc1 (stereo not shown) [Compound I-203, N-(1-{4-[(hydroxyamino)carbonyl]phenyl}-2-methylpropyl)pyrazine-2-carboxamide]
pIC50 [1]: 6.30 to 7.00

Structure (SMILES): CC(C)C(NC(=O)C(c1ccccc1)c1ccccc1)c1ccc(C(=O)NO)cc1 (stereo not shown) [Compound I-204, 4-{1-[(diphenylacetyl)amino]-2-methylpropyl}-N-hydroxybenzamide]
IC50: 500 to 1000 nM

Structure (SMILES): CC(C)C(NC(=O)Cc1csc2ccc(Cl)cc12)c1ccc(C(=O)NO)cc1 (stereo not shown) [Compound I-206, 4-(1-{[(5-chloro-1-benzothien-3-yl)acetyl]amino}-2-methylpropyl)-N-hydroxybenzamide]
pIC50 [1]: 6.30 to 7.00

The next lines start with the values.

pIC50 [1]: > 7.00
Structure (SMILES): CC(NC(=O)c1cc2ccccc2o1)c1ccc(C(=O)NO)cc1 (stereo not shown) [Compound I-207, N-(1-{4-[(hydroxyamino)carbonyl]phenyl}ethyl)-1-benzofuran-2-carboxamide]

pIC50 [1]: > 7.00
Structure (SMILES): CC(NC(=O)C1CCCCC1)c1ccc(C(=O)NO)cc1 (stereo not shown) [Compound I-208, 4-{1-[(cyclohexylcarbonyl)amino]ethyl}-N-hydroxybenzamide]

pIC50 [1]: > 7.00
Structure (SMILES): C[C@@H](NC(=O)C12CC3CC(CC(C3)C1)C2)c1ccc(C(=O)NO)cc1 [Compound I-209, N-((1R)-1-{4-[(hydroxyamino)carbonyl]phenyl}ethyl)adamantane-1-carboxamide]

pIC50 [1]: > 7.00
Structure (SMILES): CC(NC(=O)NCCc1ccccc1)c1ccc(C(=O)NO)cc1 (stereo not shown) [Compound I-210, N-hydroxy-4-[1-({[(2-phenylethyl)amino]carbonyl}amino)ethyl]benzamide]

pIC50 (bin: greater than 1 μM): < 6.00
Structure (SMILES): Cn1nc2c(c1C(=O)NC(c1ccc(C(=O)NO)cc1)C(C)(C)C)CCCC2 (stereo not shown) [Compound I-211, N-(1-{4-[(hydroxyamino)carbonyl]phenyl}-2,2-dimethylpropyl)-2-methyl-4,5,6,7-tetrahydro-2H-indazole-3-carboxamide]

pIC50 (bin: greater than 1 μM): < 6.00
Structure (SMILES): CC(NC(=O)CC12CC3CC(CC(C3)C1)C2)c1ccc(C(=O)NO)cc1 (stereo not shown) [Compound I-212]

pIC50 [1]: > 7.00
Structure (SMILES): CC(NC(=O)C1CCCCCC1)c1ccc(C(=O)NO)cc1 (stereo not shown) [Compound I-213, N-(1-{4-[(hydroxyamino)carbonyl]phenyl}ethyl)cycloheptanecarboxamide]

pIC50 [1]: > 7.00
Structure (SMILES): CC(C)[C@@H](NC(=O)c1cc2ccccc2s1)c1ccc(C(=O)NO)cc1 [Compound I-214, N-((1R)-1-{4-[(hydroxyamino)carbonyl]phenyl}-2-methylpropyl)-1-benzothiophene-2-carboxamide]

pIC50 [1]: 6.30 to 7.00
Structure (SMILES): CC(C)(C)C(NC(=O)c1cccs1)c1ccc(C(=O)NO)cc1 (stereo not shown) [Compound I-215, N-(1-{4-[(hydroxyamino)carbonyl]phenyl}-2,2-dimethylpropyl)thiophene-2-carboxamide]

IC50: 500 to 1000 nM
Structure (SMILES): CCc1cc(C(=O)NC(C)c2cccc(C(=O)NO)c2)n(C)n1 (stereo not shown) [Compound I-216, 3-ethyl-N-(1-{3-[(hydroxyamino)carbonyl]phenyl}ethyl)-1-methyl-1H-pyrazole-5-carboxamide]

pIC50 (bin: greater than 1 μM): < 6.00
Structure (SMILES): Cc1nc(CC(=O)NC(C)c2ccc(C(=O)NO)cc2)c(C)s1 (stereo not shown) [Compound I-217, 4-(1-{[(2,5-dimethyl-1,3-thiazol-4-yl)acetyl]amino}ethyl)-N-hydroxybenzamide]

pIC50 (bin: greater than 1 μM): < 6.00
Structure (SMILES): Cc1noc(C)c1C(=O)NC(C)c1cccc(C(=O)NO)c1 (stereo not shown) [Compound I-218, N-(1-{3-[(hydroxyamino)carbonyl]phenyl}ethyl)-3,5-dimethylisoxazole-4-carboxamide]
